Test results: article PMC3918950 (Experimental eye research, 2013)

Columns and labels:
Y-79 cells = assay: Anti-proliferative activity; assay type: cell-based, human; settings: for IC50: Homo sapiens, Y79, read-out: IC50 against retinoblastoma cells; for Reduction of IC50 value in the presence of moxifloxacin: Y-79, MTT, moxifloxacin 500 µM
IL-6 = assay: Pro-inflammatory cytokines assay, IL-6 release; assay type: cell-based, human; settings: 48 h; for Reduction of IL-6 release in presence of moxifloxacin: moxifloxacin 500 µM
IL-8 = assay: Pro-inflammatory cytokines assay, IL-8 release; assay type: cell-based, human; settings: 48 h; for Reduction of IL-8 release in presence of moxifloxacin: moxifloxacin 500 µM
MDR1 [1] = molecular target: T1, MDR1 (Homo sapiens, UniProt P08183); assay: in vitro; settings: MDCK-MDR1
T1 sequence (P08183 whole entry): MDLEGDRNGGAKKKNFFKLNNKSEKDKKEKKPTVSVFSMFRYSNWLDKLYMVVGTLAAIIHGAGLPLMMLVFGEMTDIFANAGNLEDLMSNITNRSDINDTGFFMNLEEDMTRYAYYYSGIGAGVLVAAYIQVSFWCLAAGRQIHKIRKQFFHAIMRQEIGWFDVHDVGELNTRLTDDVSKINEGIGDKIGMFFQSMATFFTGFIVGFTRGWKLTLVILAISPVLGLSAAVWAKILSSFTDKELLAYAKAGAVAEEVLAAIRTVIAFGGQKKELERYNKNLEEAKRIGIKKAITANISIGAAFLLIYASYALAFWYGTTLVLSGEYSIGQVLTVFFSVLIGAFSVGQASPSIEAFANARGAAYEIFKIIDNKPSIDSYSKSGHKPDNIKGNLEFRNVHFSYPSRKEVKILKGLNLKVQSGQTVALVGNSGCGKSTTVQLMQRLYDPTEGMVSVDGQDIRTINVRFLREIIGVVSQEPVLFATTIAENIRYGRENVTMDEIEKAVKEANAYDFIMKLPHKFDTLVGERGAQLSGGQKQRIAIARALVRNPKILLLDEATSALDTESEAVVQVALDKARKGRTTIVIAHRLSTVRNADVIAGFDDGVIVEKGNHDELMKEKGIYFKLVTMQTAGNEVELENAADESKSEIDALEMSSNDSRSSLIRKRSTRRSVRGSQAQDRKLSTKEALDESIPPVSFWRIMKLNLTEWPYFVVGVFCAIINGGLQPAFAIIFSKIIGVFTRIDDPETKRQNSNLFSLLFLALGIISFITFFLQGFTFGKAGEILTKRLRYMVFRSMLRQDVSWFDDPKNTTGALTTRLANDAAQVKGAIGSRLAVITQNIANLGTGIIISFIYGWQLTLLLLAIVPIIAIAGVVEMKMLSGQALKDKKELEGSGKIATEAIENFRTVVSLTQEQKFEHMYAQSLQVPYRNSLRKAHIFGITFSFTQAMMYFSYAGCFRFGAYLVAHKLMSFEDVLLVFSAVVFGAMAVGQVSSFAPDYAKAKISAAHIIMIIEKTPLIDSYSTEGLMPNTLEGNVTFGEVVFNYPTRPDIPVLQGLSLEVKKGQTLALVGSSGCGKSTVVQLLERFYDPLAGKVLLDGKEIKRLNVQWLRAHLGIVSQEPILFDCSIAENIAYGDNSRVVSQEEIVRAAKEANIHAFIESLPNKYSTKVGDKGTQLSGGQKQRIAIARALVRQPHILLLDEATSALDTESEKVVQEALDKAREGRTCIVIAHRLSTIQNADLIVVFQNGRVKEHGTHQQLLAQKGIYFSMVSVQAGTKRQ

MRP2 [2] = molecular target: T2, MRP2 (Homo sapiens, UniProt Q92887); assay: in vitro; settings: dog
T2 sequence (Q92887 whole entry): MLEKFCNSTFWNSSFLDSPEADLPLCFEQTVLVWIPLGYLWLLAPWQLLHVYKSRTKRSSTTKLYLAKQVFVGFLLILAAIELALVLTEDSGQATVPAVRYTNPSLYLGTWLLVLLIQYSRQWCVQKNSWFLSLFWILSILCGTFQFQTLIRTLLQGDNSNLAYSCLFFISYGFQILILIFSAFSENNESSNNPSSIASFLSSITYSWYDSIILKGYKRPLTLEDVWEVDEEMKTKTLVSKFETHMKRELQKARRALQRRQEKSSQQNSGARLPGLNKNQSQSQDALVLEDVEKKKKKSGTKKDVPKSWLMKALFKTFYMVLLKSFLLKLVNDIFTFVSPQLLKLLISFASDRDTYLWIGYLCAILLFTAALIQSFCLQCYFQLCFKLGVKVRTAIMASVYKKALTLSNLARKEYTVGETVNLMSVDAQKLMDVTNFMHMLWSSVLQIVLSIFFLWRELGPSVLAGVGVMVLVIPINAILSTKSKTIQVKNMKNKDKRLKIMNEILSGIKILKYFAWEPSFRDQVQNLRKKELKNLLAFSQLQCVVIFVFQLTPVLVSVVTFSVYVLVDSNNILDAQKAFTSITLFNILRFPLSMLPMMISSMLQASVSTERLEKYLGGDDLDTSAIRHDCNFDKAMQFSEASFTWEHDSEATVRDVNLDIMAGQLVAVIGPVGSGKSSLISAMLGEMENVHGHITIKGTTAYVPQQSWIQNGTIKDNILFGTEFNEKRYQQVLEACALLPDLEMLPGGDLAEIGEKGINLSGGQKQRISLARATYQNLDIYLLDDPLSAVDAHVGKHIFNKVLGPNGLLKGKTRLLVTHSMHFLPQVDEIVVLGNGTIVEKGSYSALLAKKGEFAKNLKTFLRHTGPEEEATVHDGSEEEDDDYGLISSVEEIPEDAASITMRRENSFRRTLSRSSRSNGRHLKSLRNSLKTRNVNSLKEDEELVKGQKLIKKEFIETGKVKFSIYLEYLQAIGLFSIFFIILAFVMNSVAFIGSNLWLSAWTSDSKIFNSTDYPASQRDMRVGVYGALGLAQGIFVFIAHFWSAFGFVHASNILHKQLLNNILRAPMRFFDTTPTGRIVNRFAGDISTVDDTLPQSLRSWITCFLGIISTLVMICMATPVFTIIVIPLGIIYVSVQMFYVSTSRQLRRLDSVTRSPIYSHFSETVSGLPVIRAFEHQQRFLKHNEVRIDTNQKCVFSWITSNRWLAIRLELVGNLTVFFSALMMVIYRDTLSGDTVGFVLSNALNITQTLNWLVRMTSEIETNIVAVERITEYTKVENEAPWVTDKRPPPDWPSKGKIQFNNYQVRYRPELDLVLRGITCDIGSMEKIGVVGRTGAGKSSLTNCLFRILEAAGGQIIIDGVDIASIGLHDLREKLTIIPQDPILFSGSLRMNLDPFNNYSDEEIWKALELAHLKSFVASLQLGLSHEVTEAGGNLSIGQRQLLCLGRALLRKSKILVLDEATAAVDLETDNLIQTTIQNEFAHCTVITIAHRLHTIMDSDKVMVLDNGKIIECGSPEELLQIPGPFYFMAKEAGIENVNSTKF

MDR1 [3] = molecular target: T1, MDR1; assay: Bidirectional transport of anticancer agents across MDCK-MDR1 cells; settings: moxifloxacin 500 µM
MRP2 [4] = molecular target: T2, MRP2; assay: Bidirectional transport of anticancer agents across MDCK-MRP2 cells; settings: moxifloxacin 500 µM
MDR1 [5] = molecular target: T1, MDR1; assay: Bi-directional transport of [14C]-erythromycin across MDCK-MDR1 cells; assay type: in vitro ADME; settings: MDCK-MDR1, pH 7.4
MRP2 [6] = molecular target: T2, MRP2; assay: Bi-directional transport of [14C]-erythromycin across MDCK-MRP2 cells; assay type: in vitro ADME; settings: pH 7.4
MRP2 [7] = molecular target: T2, MRP2; settings: MDCK-MRP2; [14C]-erythromycin 0.25 µCi/mL; 30 min; in presence of MK571 50 µM
MRP2 [8] = molecular target: T2, MRP2; assay: Bi-directional transport of moxifloxacin across MDCK-MRP2 cells; assay type: in vitro ADME
caspase-3 [9] = assay: Caspase-3 assay in Y-79 cells; assay type: cell-based, human
MDR1 [10] = molecular target: T1, MDR1
MDR1 [11] = molecular target: T1, MDR1; assay: in vitro; settings: MDCK-MDR1, pH 7.4
in vitro = settings: dog, MDCK, pH 7.4
MDR1 [12] = molecular target: T1, MDR1; assay: cell-based
MRP2 [13] = molecular target: T2, MRP2; assay: cell-based
caspase-3 [14] = settings: read-out: Km (caspase-3 substrate); ref Anaspec, San Jose, CA; cited from earlier work
[15] = conclusion from uptake and bi-directional transport

CC[C@]1(O)C[C@@H]2CN(CCc3c([nH]c4ccccc34)[C@@](C(=O)OC)(c3cc4c(cc3OC)N(C)[C@H]3[C@@](O)(C(=O)OC)[C@H](OC(C)=O)[C@]5(CC)C=CCN6CC[C@]43[C@@H]65)C2)C1 [Vinblastine]
IC50 (Y-79 cells): 0.0519 µM | Reduction of IC50 value in the presence of moxifloxacin (Y-79 cells): 2 fold | Release of IL-6 (IL-6; anticancer agent 0.5 µg alone): 52.90 ± 4.30 pg/mL | Reduction of IL-6 release in presence of moxifloxacin (IL-6; anticancer agent 0.5 µg): 1.11 fold | Release of IL-6 (IL-6; anticancer agent 1.0 µg alone): 73.60 ± 2.30 pg/mL | Reduction of IL-6 release in presence of moxifloxacin (IL-6; anticancer agent 1.0 µg): 1.42 fold | Release of IL-8 (IL-8; anticancer agent 0.5 µg alone): 140.20 ± 14.40 pg/mL | Reduction of IL-8 release in presence of moxifloxacin (IL-8; anticancer agent 0.5 µg): 1.40 fold | Release of IL-8 (IL-8; anticancer agent 1.0 µg alone): 284.90 ± 18.00 pg/mL | Reduction of IL-8 release in presence of moxifloxacin (IL-8; anticancer agent 1.0 µg): 1.08 fold | Papp A→B at 0.5 µCi/mL (MDR1 [1]): 1.55 ± 0.03 ×10⁻⁶ cm/s | Papp B→A at 0.5 µCi/mL (MDR1 [1]): 10.2 ± 0.47 ×10⁻⁶ cm/s | Papp A→B at 0.5 µCi/mL (MRP2 [2]): 13.5 ± 3.24 ×10⁻⁶ cm/s | Papp B→A at 0.5 µCi/mL (MRP2 [2]): 73.8 ± 8.16 ×10⁻⁶ cm/s | Elevation of AP-BL permeability by moxifloxacin (MDR1 [3]): 2.55 fold

CC[C@@]1(O)C(=O)OCc2c1cc1n(c2=O)Cc2cc3c(CN(C)C)c(O)ccc3nc2-1 [Topotecan]
IC50 (Y-79 cells): 27.9 µM | Reduction of IC50 value in the presence of moxifloxacin (Y-79 cells): 10 fold | Release of IL-6 (IL-6; anticancer agent 0.5 µg alone): 156.90 ± 2.70 pg/mL | Reduction of IL-6 release in presence of moxifloxacin (IL-6; anticancer agent 0.5 µg): 1.3 fold | Release of IL-6 (IL-6; anticancer agent 1.0 µg alone): 157.50 ± 8.80 pg/mL | Reduction of IL-6 release in presence of moxifloxacin (IL-6; anticancer agent 1.0 µg): 1.2 fold | Release of IL-8 (IL-8; anticancer agent 0.5 µg alone): 157.70 ± 12.60 pg/mL | Reduction of IL-8 release in presence of moxifloxacin (IL-8; anticancer agent 0.5 µg): 1.48 fold | Release of IL-8 (IL-8; anticancer agent 1.0 µg alone): 239.20 ± 13.90 pg/mL | Reduction of IL-8 release in presence of moxifloxacin (IL-8; anticancer agent 1.0 µg): 1.30 fold | Papp A→B at 0.5 µCi/mL (MDR1 [1]): 0.75 ± 0.03 ×10⁻⁶ cm/s | Papp B→A at 0.5 µCi/mL (MDR1 [1]): 3.5 ± 0.28 ×10⁻⁶ cm/s | efflux ratio at 0.5 µCi/mL (MDR1 [1]): 4.63 | Papp A→B at 0.5 µCi/mL (MRP2 [2]): 8.06 ± 0.66 ×10⁻⁶ cm/s | Papp B→A at 0.5 µCi/mL (MRP2 [2]): 24.8 ± 2.44 ×10⁻⁶ cm/s | efflux ratio at 0.5 µCi/mL (MRP2 [2]): 3.07 | Elevation of AP-BL permeability by moxifloxacin (MDR1 [3]): 2.08 fold | Elevation of AP-BL permeability by moxifloxacin (MRP2 [4]): 1.57 fold

CC[C@H]1OC(=O)[C@H](C)[C@@H](O[C@H]2C[C@@](C)(OC)[C@@H](O)[C@H](C)O2)[C@H](C)[C@@H](O[C@@H]2O[C@H](C)C[C@H](N(C)C)[C@H]2O)[C@](C)(O)C[C@@H](C)C(=O)[C@H](C)[C@@H](O)[C@]1(C)O [[^14C]-erythromycin, Erythromycin]
Papp A→B at 3 h, 0.5 µCi/mL (MDR1 [5]): 5.44 ± 0.52 ×10⁻⁶ cm/s | Papp B→A at 3 h, 0.5 µCi/mL (MDR1 [5]): 18.8 ± 1.05 ×10⁻⁶ cm/s | Papp B→A at 3 h, 0.5 µCi/mL (MRP2 [6]): 2.7 ± 0.18 ×10⁻⁶ cm/s

CN(C)C(=O)CCSC(SCCC(=O)O)c1cccc(/C=C/c2ccc3ccc(Cl)cc3n2)c1 (centres unmarked) [MK571]
Cellular accumulation of [14C]-erythromycin relative to control (MRP2 [7]): 273%

COc1c(N2C[C@@H]3CCCN[C@@H]3C2)c(F)cc2c(=O)c(C(=O)O)cn(C3CC3)c12 [Moxifloxacin]
Increase of AP-BL permeability of moxifloxacin (MRP2 [8]; MDCK-MRP2, in presence of MK571): 2.10 times | Substrate of MRP2 efflux transporter (MRP2 [8]; [15]): substrate | Papp A→B at 500 µM (MRP2 [8]; human, pH 7.4): 0.78 ± 0.13 ×10⁻⁶ cm/s | Papp B→A at 500 µM (MRP2 [8]; human, pH 7.4): 1.97 ± 0.41 ×10⁻⁶ cm/s | Caspase-3 activity, moxifloxacin alone (caspase-3 [9]): slightly elevated | Increase of AP-BL permeability of moxifloxacin (MDR1 [10]; MDCK-MDR1, in presence of GF120918): 2.80 times | Substrate of MDR1 efflux transporter (MDR1 [10]; [15]): substrate | Papp A→B at 500 µM (MDR1 [11]): 5.81 ± 0.44 ×10⁻⁶ cm/s | Papp B→A at 500 µM (MDR1 [11]): 20.5 ± 2.26 ×10⁻⁶ cm/s | Papp A→B at 500 µM (in vitro): 5.7 ± 0.04 ×10⁻⁶ cm/s | Papp B→A at 500 µM (in vitro): 7.4 ± 0.14 ×10⁻⁶ cm/s | IC50 (MDR1 [12]): 217 µM | IC50 (MRP2 [13]): 187 µM

Ac-DEVD-AMC
Km (caspase-3 [14]): 9.7 µM

COc1cc([C@@H]2c3cc4c(cc3[C@@H](O[C@@H]3O[C@@H]5CO[C@@H](C)O[C@H]5[C@H](O)[C@H]3O)[C@H]3COC(=O)[C@H]23)OCO4)cc(OC)c1O [Etoposide]
IC50 (Y-79 cells): 27.1 µM | Reduction of IC50 value in the presence of moxifloxacin (Y-79 cells): 13 fold | Release of IL-6 (IL-6; anticancer agent 0.5 µg alone): 105.20 ± 3.90 pg/mL | Reduction of IL-6 release in presence of moxifloxacin (IL-6; anticancer agent 0.5 µg): 1.3 fold | Release of IL-6 (IL-6; anticancer agent 1.0 µg alone): 151.40 ± 10.00 pg/mL | Reduction of IL-6 release in presence of moxifloxacin (IL-6; anticancer agent 1.0 µg): 1.4 fold | Release of IL-8 (IL-8; anticancer agent 0.5 µg alone): 191.90 ± 9.10 pg/mL | Reduction of IL-8 release in presence of moxifloxacin (IL-8; anticancer agent 0.5 µg): 1.60 fold | Release of IL-8 (IL-8; anticancer agent 1.0 µg alone): 286.60 ± 16.60 pg/mL | Reduction of IL-8 release in presence of moxifloxacin (IL-8; anticancer agent 1.0 µg): 1.28 fold | Papp A→B at 0.5 µCi/mL (MDR1 [1]): 3.57 ± 0.65 ×10⁻⁶ cm/s | Papp B→A at 0.5 µCi/mL (MDR1 [1]): 11.6 ± 1.78 ×10⁻⁶ cm/s | Papp A→B at 0.5 µCi/mL (MRP2 [2]): 37.8 ± 2.7 ×10⁻⁶ cm/s | Papp B→A at 0.5 µCi/mL (MRP2 [2]): 207 ± 17.4 ×10⁻⁶ cm/s
